Experiments:
IFNγ = experiment: Cytokine release assay, IFNγ ELISA of killing assay supernatant; type: cell-based, human; conditions: for T cell IFNγ release / secretion: supernatant of killing assay, 100 nM compound
Experimental: The concentration of TNF-α and IFN-g in the supernatants following killing assay was determined by ELISA.

FAP-eDHFR DF CAR T cells = experiment: In vitro killing assay of FAP-eDHFR DF CAR T cells against I45 huFAP-Luc target cells
eDHFR-YFP [1] = experiment: Washout experiment, eDHFR-YFP recovery in HEK293T eDHFR-YFP+ cells, Western blot; type: cell-based, Escherichia coli; conditions: 100 nM 7c, washed twice with PBS
Experimental: HEK293T^eDHFR-YFP+ cells were seeded in a clear (Falcon) 12-well plate (3×10^5 cells/well) in complete media. The next day, cells were incubated with 100 nM 7c for 24 h in complete media. Media was removed by vacuum, cells were gently washed with 1 mL PBS 2×, then cell media was replenished. Next, cells were isolated +0 to 24 h after washing and prepared for Western blot analysis.
Protein degradation is reversed in as early as 4 h after drug removal from cell media.

eDHFR-YFP [2] = experiment: Degradation of eDHFR-YFP in HEK293T eDHFR-YFP+ cells, Western blot with anti-YFP antibody; type: cell-based, Escherichia coli; conditions: 100 nM, 24 h
Experimental: HEK293T eDHFR-YFP (HEK293T^eDHFR-YFP+) and OVCAR8 eDHFR-luc (OVCAR8^eDHFR-luc+) cells are prepared in clear (Falcon) 6-well plates (5×10^5 cells/well) and cultured in complete media. Compound 7c is solubilized in 100% DMSO to 10 mM. 10 mM 7c is serially diluted in sterile water accordingly and each dose administered to cells in fresh media at equal volume, such that the final concentration of DMSO in cell media is <1%. Once incubation with drug is completed, media is removed by vacuum, cells are washed with phosphate-buffered saline (PBS), trypsonized at 37° C., quenched with media, and centrifuged (Thermo Scientific Sorvall Legend X1R) at 1000 RPM for 5 minutes. Media and cell debris are removed by vacuum.
Once cells are isolated by centrifugation (Thermo Scientific Sorvall Legend X1R), they are solubilized in radioimmunoprecipitation assay (RIPA) lysis buffer with protease inhibitor. Cell lysate is incubated on ice for 30 minutes, sonicated, then centrifuged (Thermo Scientific Sorvall Legend Micro 21R) at 14,800 RPM for 10 minutes. Supernatant is removed and transferred to a new Eppendorf tube.
Using Thermo Scientific bicinchoninic acid (BCA) assay kit, total cell protein is quantified and compared to bovine serum albumin (BSA) standards ranging from 10 to 0.625 mg/mL. Cell lysate is aliquoted into a 96-well clear plate (Falcon) and mixed with reagent and shaken at 37° C. for 30 minutes. Samples are analyzed by plate reader (ThermoFisher Varioskan Plusplate), where absorbance is measured at […]. A calibration curve is developed, and samples are prepared to equal mass (mg) of total protein for gel electrophoresis.
Cell lysate is prepared by mixing with 4 uL of loading dye and PBS to give equal total protein and equal total volume across all samples. Each sample is loaded into a NuPage gel (4-12% Bis-tris) and developed in NuPage MES Running Buffer. Once complete, the gel is removed and prepared for protein transfer to membrane. […]

eDHFR-YFP [3] = experiment: Washout experiment, reversal of YFP degradation in Jurkat eDHFR-YFP+ cells, flow cytometry; type: cell-based, Escherichia coli; conditions: 100 nM, washout after 24 h
Experimental: Jurkat^eDHFR-YFP+ cells were seeded in a clear (Falcon) 12-well plate (3×10^5 cells/well) in complete media and incubated overnight. The following day, all wells were dosed with 100 nM of 7c, and cells were sampled at 0, 4, 8, 12, and 24 h following incubation (1 well was sampled per time point). Following 24 h incubation, remaining wells of cells were collected and centrifuged (Thermo Scientific Sorvall Legend X1R) at 1200 rpm for 5 minutes. Cells were washed 3 times with PBS and seeded on a new clear (Falcon) 12-well plate in fresh complete media. The cells were sampled at 3, 6, 24, 48, and 72 h following the drug washout. All cells were fixed in 4% PFA following sampling, and all samples from […] were analyzed together on a flow cytometer (BD).

eDHFR-YFP [4] = experiment: Time and dose-dependent degradation of YFP in Jurkat-DYL / Jurkat eDHFR-YFP+ cells, flow cytometry; type: cell-based, Escherichia coli
Experimental: Likewise, Jurkat eDHFR-YFP (Jurkat^eDHFR-YFP+) cells are seeded in clear (Falcon) 12-well plates (3×10^5 cells/well) in complete media. […]

eDHFR-YFP [5] = experiment: Degradation of YFP in HEK293T-DYL cells, flow cytometry; type: cell-based, Escherichia coli; conditions: 72 and 96 h, varying doses
Text: The left panel represents the mean YFP fluorescence and the right panel represents the same data in percent of maximum YFP fluorescence normalized to HEK293T-DYL treated with DMSO.

Compound: COc1cc(Cc2cnc(N)nc2N)cc(OC)c1OCCCC(=O)NCCOCCOCCNc1cccc2c1C(=O)N(C1CCC(=O)NC1=O)C2=O (centres unmarked) [Compound 7c, 4-(4-((2,4-diaminopyrimidin-5-yl)methyl)-2,6-dimethoxyphenoxy)-N-(2-(2-(2-((2-(2,6-dioxopiperidin-3-yl)-1,3-dioxoisoindolin-4-yl)amino)ethoxy)ethoxy)ethyl)butanamide]
- IFNγ secretion across concentrations (IFNγ; different concentrations, 10:1 E:T): inhibition of CAR T cell signaling
- T cell IFNγ release / secretion (IFNγ): inhibits
- T cell IFNγ release / secretion (IFNγ; listed as TMP-POM 7c): inhibition of CAR T cell signaling
- cytotoxic function of FAP-eDHFR CAR T cells against FAP-expressing target cells (FAP-eDHFR DF CAR T cells; CAR T cells pre-incubated 24 h with 100 nM compound, varying E:T ratios): inhibition of their cytotoxic function
- cytotoxic activity of FAP-eDHFR DF CAR T cells across concentrations (FAP-eDHFR DF CAR T cells; pre-incubated overnight at different concentrations, 10:1 E:T): tunable in a dose-dependent manner
- time after drug removal at which protein degradation is reversed (eDHFR-YFP [1]): ≤ 4 h
- eDHFR-YFP degradation at 100 nM (eDHFR-YFP [2]): causes eDHFR-YFP to degrade
- time to full return of YFP expression to baseline following drug washout (eDHFR-YFP [3]): approximately 72 h
- YFP remaining, % of maximum (no drug control) (eDHFR-YFP [4]; Jurkat eDHFR-YFP+, as early as 4 h): 20 % of maximum
- degradation of YFP (eDHFR fusion protein) (eDHFR-YFP [4]; Jurkat-DYL, 4, 8 and 18 h incubation, varying doses): degrade eDHFR fusion proteins to low/no functional expression
- degradation of YFP (eDHFR-YFP [5]): degraded

From patent US20240226100A1, “CONTROL OF PROTEIN EXPRESSION WITH TMP-PROTAC COMPOUNDS” (THE TRUSTEES OF THE UNIVERSITY OF PENNSYLVANIA, priority 2021, published 2024)
